Measurements as given in ChEMBL document CHEMBL1201862, “PubChem BioAssay data set” (2004).
Activity calls are given as the source filed them.

What was measured:
[1] = molecular target: DNA dC->dU-editing enzyme APOBEC-3G (Homo sapiens, UniProt Q9HC16); assay type: functional;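 further: Dose-response counterscreen measuring inhibition of APOBEC3G DNA deaminase activity, run while confirming APOBEC3A inhibitors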
[2] = molecular target: DNA dC->dU-editing enzyme APOBEC-3A (Homo sapiens, UniProt P31941); test: Dose Response confirmation of small molecule APOBEC3A DNA Deaminase Inhibitors via a fluorescence-based single-stranded DNA deaminase assay. [Related pubchem assays (depositor defined):AID493011, AID493024]; assay type: functional
[3] = molecular target: T1, Rac GTPase-activating protein 1 (Homo sapiens, UniProt Q9H0H5); test: MgcRacGAP GTPase-activating activity inhibitors, confirmation, biochemical, ADP Hunter fluorescence, primary and confirmatory (AID 624330); assay type: functional
T1 sequence (Q9H0H5 whole entry): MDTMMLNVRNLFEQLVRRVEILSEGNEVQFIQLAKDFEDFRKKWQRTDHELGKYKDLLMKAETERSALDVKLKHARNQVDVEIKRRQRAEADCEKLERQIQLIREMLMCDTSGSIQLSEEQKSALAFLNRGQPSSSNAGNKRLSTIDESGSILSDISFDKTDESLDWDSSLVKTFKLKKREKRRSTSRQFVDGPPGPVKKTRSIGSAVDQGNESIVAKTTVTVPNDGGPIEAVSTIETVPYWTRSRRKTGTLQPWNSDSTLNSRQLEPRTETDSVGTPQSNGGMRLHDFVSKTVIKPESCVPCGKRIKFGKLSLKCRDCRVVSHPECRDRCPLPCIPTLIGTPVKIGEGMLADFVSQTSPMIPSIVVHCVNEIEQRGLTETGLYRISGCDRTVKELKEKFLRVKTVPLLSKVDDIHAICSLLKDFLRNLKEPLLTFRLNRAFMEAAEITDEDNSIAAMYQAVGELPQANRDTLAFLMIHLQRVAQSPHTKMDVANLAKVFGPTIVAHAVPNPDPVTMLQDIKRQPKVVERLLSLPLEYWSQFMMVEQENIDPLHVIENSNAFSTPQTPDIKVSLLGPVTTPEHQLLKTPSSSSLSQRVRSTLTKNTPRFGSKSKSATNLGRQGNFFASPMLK

[4] = molecular target: T2, Sentrin-specific protease 1 (Homo sapiens, UniProt Q9P0U3); test: potency of human SENP1 inhibitors, dose response, biochemical, kinetic FRET (AID 651697); assay type: functional; details: read-out: IC50_Mean
T2 sequence (Q9P0U3 whole entry): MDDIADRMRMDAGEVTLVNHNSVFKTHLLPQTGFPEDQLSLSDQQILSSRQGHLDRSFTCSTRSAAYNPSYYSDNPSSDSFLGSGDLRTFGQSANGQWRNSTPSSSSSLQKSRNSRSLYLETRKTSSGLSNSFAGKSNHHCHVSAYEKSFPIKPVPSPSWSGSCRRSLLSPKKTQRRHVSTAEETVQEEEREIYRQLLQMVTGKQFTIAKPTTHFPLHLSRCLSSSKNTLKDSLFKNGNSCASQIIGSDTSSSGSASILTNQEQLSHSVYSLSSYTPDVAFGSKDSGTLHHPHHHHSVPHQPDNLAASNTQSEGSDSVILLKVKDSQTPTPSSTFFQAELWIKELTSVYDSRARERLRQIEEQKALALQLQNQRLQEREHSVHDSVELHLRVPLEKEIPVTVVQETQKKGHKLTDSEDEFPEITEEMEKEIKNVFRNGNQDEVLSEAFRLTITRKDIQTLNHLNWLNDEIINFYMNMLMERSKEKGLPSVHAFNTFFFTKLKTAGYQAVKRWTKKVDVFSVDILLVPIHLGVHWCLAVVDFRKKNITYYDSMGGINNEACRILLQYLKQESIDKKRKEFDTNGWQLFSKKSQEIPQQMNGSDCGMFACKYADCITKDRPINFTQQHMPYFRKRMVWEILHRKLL

Large T antigen = Large T antigen (Simian virus 40, UniProt P03070); assay type: functional, Betapolyomavirus macacae;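 further: Confirmatory-stage PubChem screen for compounds that inhibit SV40 T antigen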
[5] = molecular target: T2, Sentrin-specific protease 1; test: Dose response confirmation of small molecule inhibitors of the catalytic domain of the SUMO protease, SENP1 in a FRET assay.; assay type: functional; details: read-out: IC50_Mean
[6] = insulin promoter down-regulators in MIN6 cells, imaging, high-content screening, mouse beta cells (AID 1628); assay type: functional
[7] = cytotoxicity toward NIH3T3 fibroblasts, dose response, counter-screen, cell-based, ATP luminescence, mouse fibroblasts (AID 2010); assay type: functional;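 further: cells exposed to compound for about 90 hours before reading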
[8] = inhibitors of intracellular T. cruzi replication, confirmation, NIH3T3 host cells, beta-gal luminescence (AID 2044); assay type: functional, cell-based;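 further: intracellular parasites grown in NIH/3T3 mouse fibroblasts as host cells; luminescent beta-galactosidase reporter signal from transgenic T. cruzi replicating inside host cells; inhibitors lower the luminescence signal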
[9] = cytotoxicity in MIN6 insulinoma cells, dose response, cytotoxicity control, cell-based, mouse insulinoma (AID 2122); assay type: functional;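 further: confirmatory high-throughput counterscreen run to flag cytotoxic compounds; mouse MIN-6 beta cells carrying an insulin promoter eGFP reporter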
[10] = system: Streptococcus sp. 'group A'; test: growth inhibition of control SK(-) GAS strain, dose response, counter-screen for streptokinase expression inhibitor project, luminescence, kanamycin, BacTiterGlo, confirmation (AID 1900); assay type: functional, organism-based
Streptococcus = test: Group A Streptococcus viability loss, dose response, counter-screen for streptokinase expression inhibitor project, luminescence, BacTiterGlo (AID 1915); assay type: functional, organism-based;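 further: potency for reduction of bacterial viability or growth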
Protein RecA = molecular target: T3, Protein RecA (Mycobacterium tuberculosis, UniProt P9WHJ3); test: Fluorescence Cell-Free Homogeneous Dose Retest to Identify Inhibitors of RecA-Intein Splicing Activity. [Related pubchem assays (depositor defined):AID2097, AID2223, AID489010, AID492950]; assay type: functional
T3 sequence (P9WHJ3 whole entry): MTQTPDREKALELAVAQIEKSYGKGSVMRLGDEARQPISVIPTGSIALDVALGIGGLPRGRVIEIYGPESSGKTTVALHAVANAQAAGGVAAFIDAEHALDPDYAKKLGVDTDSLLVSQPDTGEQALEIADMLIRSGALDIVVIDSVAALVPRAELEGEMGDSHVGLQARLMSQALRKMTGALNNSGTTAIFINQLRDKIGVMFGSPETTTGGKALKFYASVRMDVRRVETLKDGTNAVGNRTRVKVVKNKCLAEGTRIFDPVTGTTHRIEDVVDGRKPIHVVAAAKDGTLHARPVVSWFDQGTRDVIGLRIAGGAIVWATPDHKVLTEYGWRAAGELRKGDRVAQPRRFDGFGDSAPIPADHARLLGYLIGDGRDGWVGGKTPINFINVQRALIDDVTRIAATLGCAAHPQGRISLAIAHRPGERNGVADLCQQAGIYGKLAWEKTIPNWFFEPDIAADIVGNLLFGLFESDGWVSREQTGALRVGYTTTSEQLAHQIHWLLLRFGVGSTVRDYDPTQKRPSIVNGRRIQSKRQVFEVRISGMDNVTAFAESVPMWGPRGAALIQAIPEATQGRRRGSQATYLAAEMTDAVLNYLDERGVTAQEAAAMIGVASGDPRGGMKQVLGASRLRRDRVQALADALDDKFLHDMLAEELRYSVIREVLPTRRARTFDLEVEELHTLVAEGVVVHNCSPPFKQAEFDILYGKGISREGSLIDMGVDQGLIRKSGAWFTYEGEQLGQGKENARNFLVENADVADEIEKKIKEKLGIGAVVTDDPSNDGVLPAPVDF

[11] = molecular target: T4, Replicative DNA helicase DnaB (Mycobacterium tuberculosis, UniProt P9WMR3); test: DnaB intein splicing inhibitors, dose response, biochemical, cell-free fluorescence (AID 449749); assay type: functional
T4 sequence (P9WMR3 whole entry): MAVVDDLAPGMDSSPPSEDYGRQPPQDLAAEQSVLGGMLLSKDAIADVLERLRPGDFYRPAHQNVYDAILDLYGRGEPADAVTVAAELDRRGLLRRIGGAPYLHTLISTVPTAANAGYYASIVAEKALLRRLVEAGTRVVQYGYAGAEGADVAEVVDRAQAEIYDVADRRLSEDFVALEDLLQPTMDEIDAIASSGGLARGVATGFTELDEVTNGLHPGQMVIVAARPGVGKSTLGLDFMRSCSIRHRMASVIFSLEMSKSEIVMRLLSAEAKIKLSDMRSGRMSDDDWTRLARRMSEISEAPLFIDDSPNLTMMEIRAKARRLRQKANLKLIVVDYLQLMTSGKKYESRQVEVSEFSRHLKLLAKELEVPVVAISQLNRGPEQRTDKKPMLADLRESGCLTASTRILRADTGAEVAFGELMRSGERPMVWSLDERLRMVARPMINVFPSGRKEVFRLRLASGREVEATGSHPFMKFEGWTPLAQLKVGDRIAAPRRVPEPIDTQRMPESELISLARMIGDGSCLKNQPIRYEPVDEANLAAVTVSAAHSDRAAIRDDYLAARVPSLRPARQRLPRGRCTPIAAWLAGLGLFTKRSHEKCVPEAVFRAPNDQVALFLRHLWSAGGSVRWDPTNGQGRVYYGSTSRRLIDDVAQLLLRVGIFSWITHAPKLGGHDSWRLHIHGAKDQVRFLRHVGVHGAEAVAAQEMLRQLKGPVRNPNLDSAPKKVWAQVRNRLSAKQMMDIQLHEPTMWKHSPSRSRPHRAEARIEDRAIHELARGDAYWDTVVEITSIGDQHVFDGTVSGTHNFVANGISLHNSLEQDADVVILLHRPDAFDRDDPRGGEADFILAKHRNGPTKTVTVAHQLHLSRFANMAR

[12] = molecular target: G-protein coupled receptor 55 (Homo sapiens, UniProt Q9Y2T6); test: GPR55 agonists via beta-arrestin recruitment, primary screen, imaging, U2OS cells, beta-arrestin-GFP redistribution (AID 1961); assay type: functional
Streptokinase A = molecular target: T5, Streptokinase A (Streptococcus pyogenes serotype M1, UniProt P10520); test: S. pyogenes streptokinase expression inhibitors, potency, dose response, plasminogen activation absorbance, OD405 (AID 1914); assay type: functional, Streptococcus pyogenes M1 GAS;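 further: secreted streptokinase activity via plasminogen activation per viability signal from cell pellet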
T5 sequence (P10520 whole entry): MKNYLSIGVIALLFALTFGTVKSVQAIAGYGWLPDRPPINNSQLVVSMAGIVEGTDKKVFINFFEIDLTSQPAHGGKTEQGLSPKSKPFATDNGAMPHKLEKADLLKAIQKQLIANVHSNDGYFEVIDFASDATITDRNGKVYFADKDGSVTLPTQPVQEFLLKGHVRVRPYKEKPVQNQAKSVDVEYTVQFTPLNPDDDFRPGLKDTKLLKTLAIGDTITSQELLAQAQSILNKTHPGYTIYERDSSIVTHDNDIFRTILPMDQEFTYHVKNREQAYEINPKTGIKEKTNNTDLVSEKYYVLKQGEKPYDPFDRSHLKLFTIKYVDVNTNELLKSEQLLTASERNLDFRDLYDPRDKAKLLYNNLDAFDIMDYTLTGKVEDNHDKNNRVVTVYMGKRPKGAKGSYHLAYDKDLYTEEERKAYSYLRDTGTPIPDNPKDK

[13] = Vero E6 cell cytotoxicity, dose response, cytotoxicity control for non-replicating M. tuberculosis project, secondary assay (AID 492998); assay type: functional, VeroE6; details: Vero C1008
[14] = HepG2 cell cytotoxicity, dose response, cytotoxicity control for non-replicating M. tuberculosis project (AID 489018); assay type: functional; details: Mycobacterium tuberculosis
[15] = THP-1 cell cytotoxicity, dose response, cytotoxicity control for non-replicating M. tuberculosis project (AID 489025); assay type: functional
Vero = test: cells; assay type: functional; details: Chlorocebus sabaeus

DNA dC->dU-editing enzyme APOBEC-3A, sequence (P31941 whole entry): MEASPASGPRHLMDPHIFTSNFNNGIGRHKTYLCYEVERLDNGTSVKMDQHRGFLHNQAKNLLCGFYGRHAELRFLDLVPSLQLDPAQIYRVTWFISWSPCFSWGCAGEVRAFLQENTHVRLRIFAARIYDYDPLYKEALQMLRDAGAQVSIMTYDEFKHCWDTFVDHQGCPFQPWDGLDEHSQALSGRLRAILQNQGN
DNA dC->dU-editing enzyme APOBEC-3G, sequence (Q9HC16 whole entry): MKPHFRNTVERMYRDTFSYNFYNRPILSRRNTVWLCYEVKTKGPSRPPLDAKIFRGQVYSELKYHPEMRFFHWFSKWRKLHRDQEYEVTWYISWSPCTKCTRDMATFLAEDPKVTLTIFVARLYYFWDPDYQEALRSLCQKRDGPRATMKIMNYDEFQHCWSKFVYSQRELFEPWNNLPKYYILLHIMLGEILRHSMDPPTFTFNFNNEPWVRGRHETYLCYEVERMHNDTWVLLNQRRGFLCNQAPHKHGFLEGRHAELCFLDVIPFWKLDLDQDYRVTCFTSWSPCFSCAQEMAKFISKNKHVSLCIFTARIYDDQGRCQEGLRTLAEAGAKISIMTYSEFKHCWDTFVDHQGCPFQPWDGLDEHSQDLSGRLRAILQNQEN
Large T antigen, sequence (P03070 whole entry, the tested form may be a part): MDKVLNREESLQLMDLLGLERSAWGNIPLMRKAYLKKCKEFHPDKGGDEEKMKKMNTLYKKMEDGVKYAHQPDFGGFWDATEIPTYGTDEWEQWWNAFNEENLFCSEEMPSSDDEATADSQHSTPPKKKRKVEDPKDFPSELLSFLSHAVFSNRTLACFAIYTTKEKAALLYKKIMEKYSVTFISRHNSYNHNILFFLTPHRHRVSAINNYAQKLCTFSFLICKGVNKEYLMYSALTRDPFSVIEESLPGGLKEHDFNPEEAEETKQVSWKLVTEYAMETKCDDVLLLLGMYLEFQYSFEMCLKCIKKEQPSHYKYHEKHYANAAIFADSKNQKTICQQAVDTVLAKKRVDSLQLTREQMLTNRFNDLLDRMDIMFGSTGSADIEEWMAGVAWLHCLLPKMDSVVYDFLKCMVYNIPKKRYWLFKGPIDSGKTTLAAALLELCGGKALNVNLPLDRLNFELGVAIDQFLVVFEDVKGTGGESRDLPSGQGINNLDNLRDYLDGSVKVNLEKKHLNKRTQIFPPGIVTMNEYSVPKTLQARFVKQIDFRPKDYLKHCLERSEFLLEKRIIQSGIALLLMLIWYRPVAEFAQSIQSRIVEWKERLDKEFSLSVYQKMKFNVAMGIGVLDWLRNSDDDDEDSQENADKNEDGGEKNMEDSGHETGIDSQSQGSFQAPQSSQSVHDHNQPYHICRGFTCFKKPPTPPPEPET
G-protein coupled receptor 55, sequence (Q9Y2T6 whole entry): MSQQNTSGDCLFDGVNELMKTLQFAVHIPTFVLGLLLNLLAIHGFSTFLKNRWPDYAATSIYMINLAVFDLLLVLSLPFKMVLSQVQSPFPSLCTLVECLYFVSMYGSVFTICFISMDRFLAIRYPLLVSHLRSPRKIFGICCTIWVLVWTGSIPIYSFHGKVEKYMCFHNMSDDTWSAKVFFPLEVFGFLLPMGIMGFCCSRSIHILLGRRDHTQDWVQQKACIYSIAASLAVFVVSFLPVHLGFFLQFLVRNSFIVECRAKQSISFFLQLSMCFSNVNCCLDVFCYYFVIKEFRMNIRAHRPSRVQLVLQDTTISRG

Compound: CCn1c(C)nc2cc(S(=O)(=O)Nc3ccc(C)cc3)ccc21
- IC50 [1]: 4.4 µM (active)
- IC50 [2]: 4.42 µM (active)

Compound: CCOc1cc(/C=C2\N=C3CCCCCN3C2=O)ccc1O
- IC50 [3]: 39.9 µM (active)
- IC50 [4]: 9.57 µM (active)
- IC50 (Large T antigen): 16.9 µM (active)
- IC50 [5]: 7.67 µM (active)

Compound: CCC(C)C(=O)Nc1nc(C)c(-c2csc(Nc3ccc(Cl)cc3)n2)s1 (stereo not drawn)
- IC50 [6]: 2.48 µM (active)
- EC50 [7]: > 60 µM (not active)
- EC50 [8]: 1.75 µM (active)
- IC50 [9]: 3.05 µM (active)

Compound: CC(=O)Nc1ccc(S(=O)(=O)Nc2nc3ccccc3nc2Nc2ccc(O)cc2)cc1
- IC50 (Large T antigen): 9.57 µM (active)

Compound: CCN1C(NCc2ccc(OC)cc2)=N[C@@H](c2ccccc2)C(C(=O)OC)=C1C
- IC50 [1]: 5.66 µM (active)
- IC50 [2]: 4.07 µM (active)

Compound: CC1C(=O)C(C)C(c2cc(Cl)ccc2O)NC1c1cc(Cl)ccc1O (stereo not drawn)
- EC50 [10]: 1.4 µM (active)
- EC50 (Streptococcus): 11.5 µM (active)
- EC50 (Protein RecA): 8.24 µM (active)
- AC50 [11]: 4.77 µM (active)
- EC50 [12]: > 32 µM (inactive)
- EC50 (Streptokinase A): > 150 µM (not active)

Compound: CC/C(=C\c1oc2cc3ccccc3cc2[n+]1CC)Nc1ccccc1
- CC50 [13]: > 20 µM (active)
- CC50 [14]: > 20 µM (active)
- CC50 [15]: 16 µM (active)
- CC50 (Vero): 18.7 µM (active)
